Data as given in patent US5227487A, “Certain tricyclic and pentacyclic-hetero nitrogen rhodol dyes” (Molecular Probes, Inc., priority 1990, dated 1993).
Several values for one entry are separate records, joined by “and”; a condition that tells them apart may be missing. Equal entries are not always repeated.

Experiments:
[1] = Absorption spectra and extinction coefficients of rhodol dyes; type: physicochemical; details: aqueous 50 mM phosphate buffer at pH 8.0-9.0
Procedure: Stock solutions were prepared by accurately weighting and dissolving 5-10 mg samples of the compounds in 50 mM potassium phosphate buffer at pH 8.0. Absorbance solutions were prepared by further diluting the stock solution with 50 mM potassium phosphate buffer at pH 8.0.

[2] = Fluorescence emission spectra of rhodol dyes (uncorrected); type: physicochemical
Procedure: Uncorrected fluorescence data was obtained on a Perkin-Elmer Model 650-40 Fluorescence Spectrophotometer equipped with a Perkin-Elmer/Hitachi 057 X-Y recorder using a ten- to twentyfold dilution of the absorbance solutions. Fluorescence of the rhodol dyes was determined for the reactive dyes and for their conjugates with model compounds by dissolving the dye at a concentration above 1×10^-8 M in an appropriate solvent such as water, methanol or chloroform, followed by measurement of the fluorescence in a suitable instrument, such as a fluorescence spectrometer or fluorescence microscope.

[3] = Quantum yield relative to fluorescein; type: physicochemical; details: aqueous 50 mM phosphate buffer at pH 8.0-9.0; uncorrected
Procedure: (§1) An estimate of the quantum yield of the dyes relative to fluorescein (quantum yield=0.92 in 0.01M sodium hydroxide) was obtained by integrating the emission spectrum of the dye excited at the same wavelength and optical density as the standard. Approximate photostabilities of the rhodol derivatives, relative to fluorescein, were determined by measuring the time dependent decrease in fluorescence intensity, during continuous illumination, of equimolar solutions of the rhodol dyes and fluorescein.

[4] = pKa / pH dependence of absorption and emission; type: physicochemical
Procedure: | ^c In aqueous 50 mM phosphate buffer

[5] = Photobleaching / photostability relative to fluorescein; type: physicochemical; details: continuous illumination; equimolar solutions; 50 mM potassium phosphate pH 8.0 (FIG. 3)
Procedure: as §1

[6] = Absorption spectra and extinction coefficients of rhodol dyes; type: physicochemical; details: in methanol
[7] = background; cited from earlier work
[8] = cited from earlier work
[9] = background, cited from earlier work
[10] = background; cited from earlier work; remark: listed apart in the source
[11] = aqueous 50 mM phosphate buffer at pH 8.0-9.0

Row | Compound | Abs Max [1] [nm] | ε (extinction coefficient) [1] [M⁻¹ cm⁻¹] | Em Max [2, 11] [nm] | QY (quantum yield) [3] | Em Max ([2]; in methanol) [nm] | Abs Max [6] [nm] | further results
1 | CCNc1cc2oc3cc(=O)c(CCC(=O)O)cc-3c(-c3ccccc3C(=O)O)c2cc1C [Compound 17] | 510 | 79400 | 534 | 0.65 |  |  | pKa ([4]; 50 mm phosphate buffer): 5.91
2 | O=C(O)c1ccc(C(=O)O)c(-c2c3cc(Cl)c(=O)cc-3oc3cc4c(cc23)CCCN4)c1 [Compound 24, 5-(and-6)-carboxy-2'-chloro-3'-hydroxy-1,2,3,4tetrahydropyridino[5,6-i]-spiro[isobenzofuran-1(3H),9'-[9H]xanthen-3-one] | 524 |  | 546 | 0.37 |  |  | pKa ([4]; 50 mm phosphate buffer): 4.50
3 | O=C(O)c1ccc(C(=O)O)c(-c2c3cc(Cl)c(=O)cc-3oc3c4c5c(cc23)CCCN5CCC4)c1 [Compound 28] | 547 | 74500 | 572 | 0.31 |  |  | pKa ([4]; 50 mm phosphate buffer): 5.11
4 | NCCCCCNC(=O)c1ccc(C(=O)O)c(-c2c3cc(Cl)c(=O)cc-3oc3c4c5c(cc23)CCCN5CCC4)c1 [Compound 30] |  | 57300 |  |  | 567 | 541 | 
5 | NCCNC(=O)c1ccc(C(=O)O)c(-c2c3cc(Cl)c(=O)cc-3oc3c4c5c(cc23)CCCN5CCC4)c1 [Compound 31] |  |  |  |  | 568 | 540 | 
6 | CCCCCCCCCCCCCCCCc1cc2c(-c3cc(C(=O)O)ccc3C(=O)O)c3cc4c5c(c3oc-2cc1=O)CCCN5CCC4 [Compound 34] | 547 |  | 572 |  | 562 | 531 | ε (extinction coefficient) [6]: 84400 M⁻¹ cm⁻¹
7 | O=C(O)CCc1cc2c(cc1O)Oc1c(cc3c4c1CCCN4CCC3)C21OC(=O)c2ccccc21 (stereo not drawn) [Compound 39, 3'-hydroxy-2,3,6,7-tetrahydro-1H, 5H-quinolizino[1,9-hi]-spiro[isobenzofuran-1(3H),9'-[9H]xanthen-3-one-2'-(3-propionic acid)] | 541 | 58200 | 562 | 0.41 |  |  | pKa ([4]; 50 mm phosphate buffer): 6.63
8 | C=CC(=O)NCCCCCNC(=O)CCc1cc2c(-c3ccccc3C(=O)O)c3cc4c5c(c3oc-2cc1=O)CCCN5CCC4 [Compound 42] | 544 |  | 571 |  |  |  | 
9 | [N-]=[N+]=Nc1ccc(C(=O)NCCCCCNC(=O)CCc2cc3c(cc2O)Oc2c(cc4c5c2CCCN5CCC4)C32OC(=O)c3ccccc32)cc1 (stereo not drawn) [Compound 43] | 545 |  | 572 |  |  |  | 
10 | O=C(CI)NCCCCCNC(=O)CCc1cc2c(-c3ccccc3C(=O)O)c3cc4c5c(c3oc-2cc1=O)CCCN5CCC4 [Compound 44] | 544 |  | 572 |  |  |  | 
11 | O=C(CCc1cc2c(-c3ccccc3C(=O)O)c3cc4c5c(c3oc-2cc1=O)CCCN5CCC4)NCCCCCNC(=O)CN1C(=O)C=CC1=O [Compound 45] | 544 |  | 573 |  |  |  | 
12 | NNC(=O)CCc1cc2c(-c3ccccc3C(=O)O)c3cc4c5c(c3oc-2cc1=O)CCCN5CCC4 [Compound 49] | 542 |  | 573 |  |  |  | 
13 | O=C1OC2(c3ccc(O)cc3Oc3cc(O)ccc32)c2ccccc21 [Fluorescein] | 490 | 75000 | 514 | 0.92 |  |  | pH sensitivity [7]: pH dependent absorption spectrum; quantum yield of the standard ([8]; in 0.01M sodium hydroxide): 0.92; pKa ([4]; aqueous 50 mM phosphate buffer): 6.4; absorption intensity at 514 nm relative to maximum at 492 nm ([9]; 514 nm): less than 10%; absorptivity at peak ([9]; at absorption peak): 75,000 cm^-1 M^-1; absorption maximum [9]: 492 nm and ~490 nm
14 | CN(C)c1ccc2c(-c3ccccc3C(=O)[O-])c3ccc(N(C)C)cc3[o+]c2c1 [Tetramethylrhodamine] |  |  |  |  |  |  | photostability [10]: relatively photostable; pH sensitivity [7]: pH insensitive; quantum yield in alcohol ([8]; background, in alcohol): above 0.90; quantum yield in water ([8]; background, in water): approximately 0.23

Further lines, with some results ahead:

Row | Abs Max [1] [nm] | ε (extinction coefficient) [1] [M⁻¹ cm⁻¹] | Em Max [2, 11] [nm] | QY (quantum yield) [3] | Em Max ([2]; in methanol) [nm] | Abs Max [6] [nm] | Compound | further results
15 | 492 | 59900 | 517 | 0.81 |  |  | 5(and -6)-carboxy-3'-hydroxy-6'-amino-spiro[isobenzofuran-1(3H,9'-[9H]xanthen-3- one [Compound 1] | pKa ([4]; aqueous 50 mM phosphate buffer): 5.59; pH dependence of absorption and emission ([4]; aqueous solution, between pH 6 and 10, compared with fluorescein (FIG. 4)): less significant pH dependence; photostability / rate of photobleaching relative to fluorescein [5]: superior photostability
16 | 510 | 54800 | 535 | 0.81 |  |  | 5-(and -6)-carboxy-2',7'-dimethyl-3'-hydroxy-6'-N-ethylamino-spiro[isobenzofuran- 1(3H),9'-[9H]xanthen-3-one [Compound 12] | pKa ([4]; aqueous 50 mM phosphate buffer): 5.82
17 | 543 |  | 572 |  |  |  | NCCCCCNC(=O)CCc1cc2c(cc1O)Oc1c(cc3c4c1CCCN4CCC3)C21OC(=O)c2ccccc21 (stereo not drawn) [Compound 50] | 
18 |  |  |  |  | 578 | 563 | O=c1cc2oc3c4c5c(cc3c(CCl)c-2cc1Cl)CCCN5CCC4 [Compound 51] | 
19 | 558 |  | 603 |  |  |  | CCc1cc2c(C(=O)O)c3cc4c5c(c3oc-2cc1=O)CCCN5CCC4 [Compound 52] | 
20 | 538 | 69500 | 562 | 0.44 | 555 | 531 | O=C(O)CCc1cc2cc3cc4c5c(c3oc-2cc1=O)CCCN5CCC4 [Compound 54] | ε (extinction coefficient) [6]: 81400 M⁻¹ cm⁻¹
21 | 538 | 64100 | 562 |  | 556 | 532 | O=C(O)CCCCc1cc2cc3cc4c5c(c3oc-2cc1=O)CCCN5CCC4 [Compound 55] | ε (extinction coefficient) [6]: 88700 M⁻¹ cm⁻¹
22 |  |  |  |  | 556 | 532 | O=C(O)CCCCCCCCCCCc1cc2cc3cc4c5c(c3oc-2cc1=O)CCCN5CCC4 [Compound 56] | ε (extinction coefficient) [6]: 84400 M⁻¹ cm⁻¹
23 | 602 |  | 635 |  | 633 | 593 | O=C(O)CCc1cc2c(C(F)(F)F)c3cc4c5c(c3oc-2cc1=O)CCCN5CCC4 [Compound 57] | 
24 | 640 |  | 664 |  |  |  | N#Cc1c2cc(CCC(=O)O)c(=O)cc-2oc2c3c4c(cc12)CCCN4CCC3 [Compound 58] | 
25 | 491 | 75000 | 514 | 0.78 |  |  | Carboxyfluorescein [reference compound] | pKa ([4]; 50 mm phosphate buffer): 6.4
26 | 547 | 77000 | 574 | 0.23 |  |  | Carboxytetramethylrhodamine [reference compound] | 
